Results taken from ChEMBL document CHEMBL5360647, “A Systematic Survey of Reversibly Covalent Dipeptidyl Inhibitors of the SARS-CoV-2 Main Protease” (J Med Chem, 2023).

Test system: SARS-CoV-2
Assay: Antiviral activity against SARS-CoV-2 USA-WA1/2020 infected in Vero E6 cells assessed as reduction in viral plaque formation incubated for 3 days by plaque reduction neutralization assay
Format: functional, organism-based
Details: Severe acute respiratory syndrome coronavirus 2, USA-WA1/2020, Vero C1008, 72 h

Compound: CC1(C)[C@@H]2[C@@H](C(=O)N[C@H](C=O)C[C@@H]3CCNC3=O)N(C(=O)OCc3ccccc3)C[C@@H]21
- EC50: 1500 nM

Compound: O=C[C@H](C[C@@H]1CCNC1=O)NC(=O)C1CC2(CCCC2)CN1C(=O)OCc1ccccc1 (stereo partly drawn)
- EC50: 370 nM

Compound: O=C[C@H](C[C@@H]1CCNC1=O)NC(=O)C1CC2(CCCCC2)CN1C(=O)OCc1ccccc1 (stereo partly drawn)
- EC50: 370 nM
